The results in this text go back to patent US11976054B2, “Amide derivative and preparation method therefore and use thereof in medicine” (Chengdu Baiyu Pharmaceutical Co., Ltd., priority 2019, dated 2024).

Data set [1] relates to Human monocyte cell line THP-1. Put plainly: Detection of THP-1 cell pyroptosis (Caspase-Glo 1 Inflammasome Assay). The data set is classed as cell-based. The settings on record: 20 nM PMA 48 h, 1 μg/mL LPS, compound 3 h. The method, then: Human monocyte cell line THP-1 (ATCC® TB-202TM) was cultured in RPMI-1640 culture medium containing […], 1 mM pyruvic acid, 0.05 mM β-mercaptoethanol and 10% double antibody under the culture conditions of 37° C. and […].
Cell counting was performed, THP-1 cells were seeded into a 96-well plate at 50000 per well, and 20 nM PMA was added for inducing at 37° C./5% CO2 for 48 h. The culture medium was then discarded, and 100 μL of serum-free RPMI-1640 medium containing 1 μg/mL LPS was added. 5 μL of compound or solvent control was added and 3-fold diluted in gradient from a maximum concentration of 10 μM, and 10 gradient concentrations were set. The mixtures were incubated at 37° C./5% CO2 for 3 h. After the incubation, the mixtures were centrifuged at 300 g for 5 min, and the culture medium was discarded. Pyroptosis assay was performed according to specific steps described in instructions of Caspase-Glo® 1 Inflammasome Assay kit. IC50 was calculated using GraphPad Prism7.0 software.

Data set [2] in a line: Pharmacokinetic analysis of compounds in rats. The data set is classed as in vivo, SD rats. The following applies: SD, rat, in vivo. The method, then:
Healthy adult SD rats weighing 180-220 g were fasted (free access to water) overnight and divided into tail vein administration group and intragastric administration group. The tail vein administration group was subjected to blood collection of 0.1 mL from orbital venous plexus before the administration and 5 min, 15 min, 0.5 h, 1 h, 2 h, 4 h, 8 h, 12 h and 24 h after the administration, and plasma was separated out by centrifugation at 4° C. for 5 min and stored at −20° C. for test. The intragastric administration group was subjected to blood collection of 0.1 mL from orbital venous plexus before the administration and 5 min, 15 min, 0.5 h, 1 h, 2 h, 4 h, 8 h, 12 h and 24 h after the administration, and the subsequent treatment procedures were the same as those of the tail vein injection group. The concentration of parent drug in the plasma was determined by LC-MS/MS.

Where [3] appears, read: Homo sapiens, THP-1, THP-1 pyroptosis.

In data set [1] (setting [3]), `CC(c1ccc2c(c1NC(=O)NS(=O)(=O)c1cc(C(C)(C)O)co1)CCC2)C1CCC1` (stereo not shown) [Compound 15, N-((5-(1-cyclobutylethyl)-2,3-dihydro-1H-inden-4-yl)carbamoyl)-4-(2-hydroxypropan-2-yl)furan-2-sulfonamide] yielded an IC50 of 100 to 500 nM.
In data set [1] (setting [3]), `CC(C)c1cccc([C@@H](C)C2CC2)c1NC(=O)NS(=O)(=O)c1cc(C(C)(C)O)co1` [Compound 71, (S)-N-((2-(1-cyclopropylethyl)-6-isopropylphenyl)carbamoyl)-4-(2-hydroxypropan-2-yl)furan-2-sulfonamide] registered an IC50 of 100 to 500 nM.
For `CC(c1ccc2c(c1NC(=O)NS(=N)(=O)c1cnc(C(C)(C)O)s1)CCC2)C1CC1` (racemic) [Compound 20-2, (RS, SC)- and (SS, SC)-N-((5-(1-cyclopropylethyl)-2,3-dihydro-1H-inden-4-yl)carbamoyl)-2-(2-hydroxypropan-2-yl)thiazole-5-sulfonimidamide], the IC50 in data set [1] (THP-1 pyroptosis) was 100 to 500 nM.
Same read-out and setting: the figure for `CC(C)c1cccc(C(C)C2CC2)c1NC(=O)NS(=N)(=O)c1cc(C(C)(C)O)co1` (racemic) [Compound 74-1, (RS, RC)- and (SS, RC)-N-((2-(1-cyclopropylethyl)-6-isopropylphenyl)carbamoyl)-4-(2-hydroxypropan-2-yl)furan-2-sulfonimidamide] is ≤ 100 nM.
For the compound `C[C@H](c1ccc2c(c1NC(=O)NS(=O)(=O)c1cnc(C(C)(C)O)s1)CCC2)C1CC1` [Compound 88, (S)-N-((5-(1-cyclopropylethyl)-2,3-dihydro-1H-inden-4-yl)carbamoyl)-2-(2-hydroxypropan-2-yl)thiazole-5-sulfonamide], the IC50 in data set [1] (setting [3]) fell in the range of 100 to 500 nM.
The same measure, in the same setting: the figure for `C[C@H](c1ccc2c(c1NC(=O)NS(=O)(=O)c1cc(C3(O)CC3)co1)CCC2)C1CC1` [Compound 60, (S)-N-((5-(1-cyclopropylethyl)-2,3-dihydro-1H-inden-4-yl)carbamoyl)-4-(1-hydroxycyclopropyl)furan-2-sulfonamide] is 100 to 500 nM.
With `C[C@@H](c1ccc2c(c1NC(=O)NS(=N)(=O)c1cc(C(C)(C)O)co1)CCC2)C1CCC1` (mixture of isomers) [Compound 80-1, (RS)- and (SS)-N-((5-((R)-1-cyclobutylethyl)-2,3-dihydro-1H-inden-4-yl)carbamoyl)-4-(2-hydroxypropan-2-yl)furan-2-sulfonimidamide], the IC50 in data set [1] (THP-1 pyroptosis) was in the range of 100 to 500 nM.
On to `CC(c1cc(C#N)c2c(c1NC(=O)NS(=N)(=O)c1cc(C(C)(C)O)co1)CCC2)C1CC1` (racemic) [Compound 46-2, (RS, RC)- and (SS, RC)-N-((7-cyano-5-(1-cyclopropylethyl)-2,3-dihydro-1H-inden-4-yl)carbamoyl)-4-(2-hydroxypropan-2-yl)furan-2-sulfonimidamide], for which, in data set [1] (THP-1 pyroptosis), the IC50 lay within 100 to 500 nM.
For `Cc1ccc(S(=N)(=O)NC(=O)Nc2c(C(C)C)cccc2C(C)C)cc1` (stereo not shown) [Compound 92-2, RS- and SS-N-((2,6-diisopropylphenyl)carbamoyl)-4-methylbenzenesulfonimidamide, reference compound], in data set [1] (THP-1 pyroptosis), the IC50 is > 10000 nM.
`C[C@H](c1ccc2c(c1NC(=O)N[S@](=N)(=O)c1cc(C(C)(C)O)cs1)CCC2)C1CC1` [Compound 54-2]: the IC50 in data set [1] (setting [3]) was in the range of 100 to 500 nM.
`CC(c1cc(C#N)c2c(c1NC(=O)NS(=N)(=O)c1cc(C(C)(C)O)co1)CCC2)C1CC1` (racemic) [Compound 48-2, (RS, SC)- and (SS, SC)-N-((7-cyano-5-(1-cyclopropylethyl)-2,3-dihydro-1H-inden-4-yl)carbamoyl)-4-(2-hydroxypropan-2-yl)furan-2-sulfonimidamide] showed an IC50 in data set [1] (THP-1 pyroptosis) of 1000 to 5000 nM.
On the same count and under the same terms, next, `C[C@@H](c1ccc2c(c1NC(=O)NS(=N)(=O)c1cc(C(C)(C)O)co1)CC2)C1CC1` (mixture of isomers) [Compound 38-2, RS- and SS-N-((3-((R)-1-cyclopropylethyl)bicyclo[4.2.0]octa-1(6),2,4-trien-2-yl)carbamoyl)-4-(2-hydroxypropan-2-yl)furan-2-sulfonimidamide]: 1000 to 5000 nM; `CC(c1cc(C#N)c2c(c1NC(=O)NS(=N)(=O)c1cc(C(C)(C)O)co1)CCC2)C1CC1` (racemic) [Compound 48-1, (RS, SC)- and (SS, SC)-N-((7-cyano-5-(1-cyclopropylethyl)-2,3-dihydro-1H-inden-4-yl)carbamoyl)-4-(2-hydroxypropan-2-yl)furan-2-sulfonimidamide]: 100 to 500 nM; `Cc1oc(S(=N)(=O)NC(=O)Nc2c(C(C)C3CC3)ccc3c2CCC3)cc1C(C)(C)O` (single isomer, unassigned) [Compound 24-1, RS- and SS-N-((5-(1-cyclopropylethyl)-2,3-dihydro-1H-inden-4-yl)carbamoyl)-4-(2-hydroxypropan-2-yl)-5-methylfuran-2-sulfonimidamide]: 100 to 500 nM.
Same read-out and setting: the figure for `Cc1ccc(S(=N)(=O)NC(=O)Nc2c(C(C)C)cccc2C(C)C)cc1` (stereo not shown) [Compound 92-1, RS- and SS-N-((2,6-diisopropylphenyl)carbamoyl)-4-methylbenzenesulfonimidamide, reference compound] is > 10000 nM.
Turning to `C[C@H](c1ccc2c(c1NC(=O)NS(=N)(=O)c1ccc(C3(O)COC3)s1)CCC2)C1CC1` (stereo partly drawn) [Compound 65C, N-((5-((S)-1-cyclopropylethyl)-2,3-dihydro-1H-inden-4-yl)carbamoyl)-5-(3-hydroxyoxetan-3-yl)thiophene-2-sulfonimidamide], the IC50 in data set [1] (setting [3]) was in the range of 100 to 500 nM.
Same read-out and setting: the figure for `CC(C)(O)c1coc(S(=O)(=O)NC(=O)Nc2c(CC3CC3)ccc3c2CCC3)c1` [Compound 3, N-((5-(cyclopropylmethyl)-2,3-dihydro-1H-inden-4-yl)carbamoyl)-4-(2-hydroxypropan-2-yl)furan-2-sulfonamide] is 100 to 500 nM.
Turning to `CC(C)c1cccc([C@@H](C)C2CC2)c1NC(=O)NS(=N)(=O)c1cc(C(C)(C)O)co1` (mixture of isomers) [Compound 73-1, (RS, SC) and (SS, SC)-N-((2-(1-cyclopropylethyl)-6-isopropylphenyl)carbamoyl)-4-(2-hydroxypropan-2-yl)furan-2-sulfonimidamide], the IC50 in data set [1] (THP-1 pyroptosis) was ≤ 100 nM.
Consider `CC(C)(O)c1coc(S(=N)(=O)NC(=O)Nc2c(CC3CCC3)ccc3c2CC3)c1` (single isomer, unassigned) [Compound 34-2, RS- and SS-N-((3-(cyclobutylmethyl)bicyclo[4.2.0]octa-1(6),2,4-trien-2-yl)carbamoyl)-4-(2-hydroxypropan-2-yl)furan-2-sulfonimidamide], for which, in data set [1] (THP-1 pyroptosis), the half-inhibitory concentration (IC50) is ≤ 100 nM.
`CC(C)c1cccc(CC2CCC2)c1NC(=O)NS(=N)(=O)c1cc(C(C)(C)O)co1` (single isomer, unassigned) [Compound 70-2, RS- and SS-N-((2-(cyclobutylmethyl)-6-isopropylphenyl)carbamoyl)-4-(2-hydroxypropan-2-yl)furan-2-sulfonimidamide]: the IC50 in data set [1] (THP-1 pyroptosis) is 1000 to 5000 nM.
For the compound `CC(C)(O)c1coc(S(=O)(=O)NC(=O)Nc2c3c(cc4c2CCC4)CCC3)c1` [Control 3, 1-(1,2,3,5,6,7-hexahydro-s-indacen-4-yl)-3-[4-(1-hydroxy-1-methyl-ethyl)-furan-2-sulfonyl]urea, reference compound], in data set [2] (iv, 1 mg/kg), the AUC was 1400 ng·h/mL, the Vd worked out at 0.402 L/kg, the clearance was found to be 14.2 mL/min/kg and the half-life was 0.46 h. Besides, the bioavailability in data set [2] (po) amounted to 36.4%. In data set [2] (po, 10 mg/kg), this compound had an AUC of 5080 ng·h/mL, a Cmax of 1930 ng/mL and a half-life of 2.1 h.

Broadly, the IC50 is the concentration that gives 50% inhibition. Low readings indicate greater potency, high ones weaker potency. By AUC is commonly meant concentration integrated over time. In general, Vd refers to a proportionality between amount in the body and measured concentration, not a real space. One may read the clearance as the rate of elimination divided by the concentration. Low readings indicate inefficient removal, high ones efficient removal. A word on the half-life: it is the time in which the quantity being followed falls by half. A higher half-life goes with slow loss. The term bioavailability denotes the share of a dose that reaches the circulation, judged against a reference dose that is usually intravenous. For orientation: Cmax means the peak of the concentration-time curve.
